Experimental findings from patent US4623535A, “Leukotriene antagonists” (SmithKline Beckman Corporation, priority 1984, dated 1986) are described below.

The target in the assay is T1, leukotriene D4 (LTD4) induced contraction of guinea pig tracheal spiral strips (Cavia porcellus, UniProt Q2NNR5).
T1 construct: Guinea pig (adult male albino Hartley strain) tracheal spiral strips; from tissue; host or cells: guinea pig trachea (spiral strips, adult male albino Hartley strain)
T1 sequence (Q2NNR5 1-340): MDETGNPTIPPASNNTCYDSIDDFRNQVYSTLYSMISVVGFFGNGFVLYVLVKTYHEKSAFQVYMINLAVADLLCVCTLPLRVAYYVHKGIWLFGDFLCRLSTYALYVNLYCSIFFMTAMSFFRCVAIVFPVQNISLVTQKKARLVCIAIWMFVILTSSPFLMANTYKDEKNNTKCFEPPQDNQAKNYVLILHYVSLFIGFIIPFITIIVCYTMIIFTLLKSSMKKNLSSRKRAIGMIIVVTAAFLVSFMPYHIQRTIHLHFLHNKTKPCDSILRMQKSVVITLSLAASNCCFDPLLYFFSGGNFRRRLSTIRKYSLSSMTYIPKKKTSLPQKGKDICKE
The assay can be described thus: Inhibition of leukotriene (LTD4) induced contraction of guinea pig tracheal tissues in vitro. To be noted: LTD4 agonist, 30 min pretreatment with test compound, meclofenamic acid 1 μM, EC30 relative to carbachol (10 μM), read-out: In Vitro -Log KB (converted). Format: cell-based, guinea pig (adult male albino Hartley strain). As to the method:
The leukotriene antagonist activity of the compounds of this invention is measured by the ability of the compounds to inhibit the leukotriene induced contraction of guinea pig tracheal tissues in vitro. The following methodology was employed:
In vitro: Guinea pig (adult male albino Hartley strain) tracheal spiral strips of approximate dimensions 2 to 3 mm cross-sectional with and 3.5 cm length were bathed in modified Krebs buffer in jacketed 10 ml tissue bath and continuously aerated with 95% O2 /5% CO2. The tissues were connected via silk suture to force displacement transducers for recording isometric tension. The tissues were equilibrated for 1 hr., pretreated for 15 minutes with meclofenamic acid (1 μM) to remove intrinsic prostaglandin responses, and then pretreated for an additional 30 minutes with either the test compound or vehicle control. A cumulative concentration-response curve for LTD4 on triplicate tissues was generated by successive increases in the bath concentration of the LTD4. In order to minimize intertissue variability, the contractions elicited by LTD4 were standardized as a percentage of the maximum response obtained to a reference agonist, carbachol (10 μM).
Calculations: The averages of the triplicate LTD4 concentration-response curves both in the presence and absence of the test compound were plotted on log graph paper. The concentration of LTD4 needed to elicit 30% of the contraction elicited by carbachol was measured and defined as the EC30. The -log KB value for the test compound was determined by the following equations: [formula]
The antagonist activity of representative compounds of this invention is tabulated below. The -log KB values were calculated from the above test protocol.
In the case of `CCCCCCCCCCCCC#CC(SCCC(=O)O)SCCC(=O)O` [R1 = C12 H25, m = 2, n = 2, 4,6-dithia-5-(1-tetradecynyl)-nonanedioic acid], the Kb is 2 µM.

Take `CCCCCCCCCCC#CC(SCCC(=O)O)SCCC(=O)O` [R1 = C10 H21, m = 2, n = 2, 4,6-dithia-5-(1-dodecynyl)-nonanedioic acid]: the Kb is 0.794 µM.

For the compound `CCCCCCCCCCC#CC(SCCCC(=O)O)SCCCC(=O)O` [R1 = C10 H21, m = 3, n = 3, 5,7-dithia-6-(1-dodecynyl)-undecanedioic acid], the Kb was 3.16 µM.

Take `CCCCCCCCC#CC(SCCC(=O)O)SCCC(=O)O` [R1 = C8 H17, m = 2, n = 2, 4,6-Dithia-5-(1-decynyl)-nonanedioic acid]: the Kb is 10 µM.

Take `CCCCCCCCCCC#CC(SCC(=O)O)SCC(=O)O` [R1 = C10 H21, m = 1, n = 1, 3,5-dithia-4-(1-dodecynyl)-heptanedioic acid]: the Kb was 5.01 µM.
